Reference: BindingDB's records for PubMed 32771797 (Southern Medical University, 2020)

Test: Inhibition of Severe acute respiratory syndrome coronavirus 2 MPro incubated for 24 hrs by plaque assay

O=C[C@H](C[C@@H]1CCNC1=O)NC(=O)[C@H](Cc1cccc(F)c1)NC(=O)c1cc2ccccc2[nH]1 [med.21724, Compound 62]
EC50: 720 nM
